Laboratory results published in EP4785795A1 (priority 2023, dated 2025).

Tested on: Aspergillus flavus
Type: cell-based

Structure (SMILES) | aflatoxin production inhibiting activity | aflatoxin production inhibiting activity relative to the natural product cyclo (L-Ala-Gly) (based on the IC50 (concentration that reduces the amount of aflatoxin B1 to 1/2), 25°C, 4 days) [fold]
O=C1CNC(=O)CN1 [cyclo (Gly-Gly)] | did not exhibit sufficient aflatoxin production inhibiting activity | 
CC[C@@H]1NC(=O)CNC1=O [cyclo (L-Abu(2)-Gly)] | extremely excellent aflatoxin production inhibiting activity | 75
C[C@H]1NC(=O)CNC1=O [cyclo (D-Ala-Gly)] | did not exhibit sufficient aflatoxin production inhibiting activity | 
